{
  "source": "paper PMC12756182",
  "about": "“Co-option of an ancestral peptidase controls developmental patterning in multicellular cyanobacteria” (iScience, 2025)",
  "molecules": {"B1": {"name": "HetN: another inhibitor that maintains heterocyst patterning, containing the RGSGR pentapeptide (protein, UniProt P37694 1-287, looked up)", "Ketoacyl reductase HetN": "MTTLTGKTVLLTGASRGLGVYIARALAKEQATVVCVSRSQSGLAQTCNAVKAAGGKAIAIPFDVRNTSQLSALVQQAQDIVGPIDVLINNAGIEINGTFANYSLAEIQSIFNTNLLAAMELTRLLLPSMMERGSGRIVNIASLAGKKGVAFNSVYSASKAGLIMWTDAMRQELVGTGVNISVVCPGYVSQTGMTVDTRVSAPKLAGISTPKSVANAVVKAIKNKTTEVIVNQNPITESLTKLMLAVGQISPTSVDRIYRWFGVVDFNQKRAENRVKDGYVAVESHRS"}, "B2": {"name": "PatX-6 peptide (HRGTGR) (peptide)", "peptide": "HRGTGR", "notes": "also called PatX6 hexapeptide; PatX-derived hexapeptide; source: synthetic peptide (Genecust)"}},
  "key": {"[1]": {"test_system": "Nostoc PCC 7120 heterocyst differentiation", "conditions": "cited from earlier work", "description": "While hetR is conserved across heterocyst-forming cyanobacteria, patS and hetN are not,[23] implying the existence of additional inhibitory factors. Recently, PatX, containing the HRGTGR hexapeptide, was identified as coextensive with HetR in filamentous cyanobacteria.[23]"}, "[2]": {"test_system": "Alr1666 (PatP)", "experiment": "LC-MS/MS identification of Alr1666-generated non-tryptic PatX peptides", "type": "biochemical, Nostoc PCC 7120", "conditions": "LC-MS/MS of excised 18–25 kDa gel region; three experimental replicates; with vs without Alr1666-V5", "description": "Figure 5 Ex vivo cleavage assay of TrxA-PatXΔSS-MBP by the putative peptidase Alr1666 (A) Schematic of the TrxA-PatXΔSS-MBP fusion protein construct, shown before and after potential cleavage by Alr1666. (B) Immunoblot analysis of cleavage assays. Expression of trxA-patXΔSS-malE was induced with IPTG; expression of alr1666-V5 was induced with arabinose. The blot was probed with anti-TrxA antibodies (top panel) to detect the full-length TrxA-PatXΔSS-MBP fusion and any TrxA-PatX cleavage product, and with anti-V5 antibodies (bottom panel) to confirm Alr1666-V5 production. Lanes: 1, no inducer (negative control); 2, IPTG for 3 h; 3, IPTG for 1 h; 4, co-induction with IPTG and arabinose for 3 h; 5, sequential induction (IPTG for 1 h, then arabinose for 3 h). (C) Liquid chromatography-tandem mass spectrometry analysis of peptides from excised gel bands (see Figure S6A). […] Trx-PatXΔSS-MBP + Alr1666-V5: Experimental assay with Alr1666-V5. ∗0 values: No non-tryptic peptides were detected in control samples. […]\nThe 18–25 kDa region was excised to identify PatX-cleavage peptides by mass spectrometry (Figure S6A). Because higher molecular-weight bands smear downward during SDS-PAGE, the excised slice also contains proteins from those upper regions, and they will be detected as well. […] They were uniquely detected in Alr1666-expressing samples ([…]). […]"}, "[3]": {"target": "T1, HetR (Nostoc PCC 7120) (UniProt P27709)", "T1 sequence": "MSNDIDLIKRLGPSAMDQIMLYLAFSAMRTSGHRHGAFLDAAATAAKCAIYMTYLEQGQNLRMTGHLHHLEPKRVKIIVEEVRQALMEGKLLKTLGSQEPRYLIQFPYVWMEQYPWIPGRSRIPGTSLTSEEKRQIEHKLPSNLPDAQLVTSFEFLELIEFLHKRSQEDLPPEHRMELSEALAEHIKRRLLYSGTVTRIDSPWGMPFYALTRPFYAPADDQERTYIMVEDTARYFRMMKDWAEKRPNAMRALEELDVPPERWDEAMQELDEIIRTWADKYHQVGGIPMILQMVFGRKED", "experiment": "EMSA", "conditions": "EMSA: 10 mM Tris pH 8, 150 mM KCl, 500 nM EDTA, 0.1% Triton X-100, 12.5% glycerol, 1 mM DTT, 1 ug DiDC competitor (so in the source), 50 nM DNA, 4 C, 30 min in the …"}, "[4]": {"target": "T2, HetR (Nostoc sp., UniProt P27709)", "T2 construct": "made in house", "T2 sequence (P27709 1-299)": "T1 sequence", "conditions": "cited from earlier work", "description": "Heterocyst differentiation involves four stages—induction, pattern formation, commitment, and morphogenesis—regulated by signaling cascades involving the master transcriptional regulator HetR.[10] Nitrogen starvation triggers 2-oxoglutarate (2-OG) accumulation, activating NtcA to upregulate hetR.[11]^,[12] Deletion of hetR prevents differentiation, while its overexpression induces contiguous heterocysts formation even under non-permissive conditions.[10] HetR initiates a negative feedback loop by activating patS expression.[13] The resulting 17-amino-acid product is processed into the signalin ..."}, "[5]": {"test_system": "Nostoc heterocyst differentiation", "conditions": "cited from earlier work"}, "[6]": {"test_system": "HetR / hetP promoter", "experiment": "EMSA of HetR with the hetP promoter", "type": "biochemical, Nostoc PCC 7120", "conditions": "HetR 1 μM, hetP promoter 50 nM (6-FAM), peptide 1 μM, pH 8, 4°C, 30 minutes, one representative result", "method": "Heterocysts are indicated by white arrows. Time denotes hours post combined nitrogen starvation. Scale bars, 30 μm. […] Sector 1: wild-type. Sector 2: malE mutant. […] Red color indicates MBP periplasmic export.\nThe hetP gene promoter (alr2818) was amplified by PCR using PhetP fw and PhetP rv primers, with the forward primer labeled at the 5′ end with 6-FAM. Purified HetR protein (as previously described),[3] was incubated with the hetP promoter (50 nM) in a buffer containing 10 mM Tris (pH 8), 150 mM KCl, 500 nM EDTA, 0.1% Triton X-100, 12.5% glycerol, 1 mM DTT, and 1 μg DiDC competitor at 4°C in the dark for 30 minutes. Electrophoresis was conducted at 250 V for 60 minutes, and DNA was visualized using the Typhoon FLA 9500."}, "[7]": {"target": "T3, HetR (Nostoc PCC 7120, UniProt P27709 1-299)", "T3 construct": "HetR, master transcriptional regulator of heterocyst differentiation, Nostoc/Anabaena PCC 7120; purified protein used in ITC and EMSA; also called master transcriptional regulator HetR; source: purified (as previously described)", "T3 sequence (looked up)": "T1 sequence", "experiment": "ITC; PatX6 (200 μM, syringe) titrated into HetR (22 μM, cell), 25°C, PBS pH 7.4, one-site binding model, MicroCal PEAQ-ITC", "conditions": "both partners purified"}},
  "data": [
    {"molecule": "PatS: 17-amino-acid product of patS, processed into PatS5 or PatS6 (MKAIMLVNFCDERGSGR; UniProt O52748 1-17, looked up)", "values": [
      {"measurement": "effect of overexpression on heterocyst differentiation", "setting": "[1]", "result": "inhibits heterocyst differentiation"}
    ]},
    {"molecule": "GPDIIFWAHDR [non-tryptic PatX cleavage peptide flanking HRGTGR, detected by mass spectrometry]", "values": [
      {"measurement": "detection of non-tryptic cleavage peptide", "setting": "[2]", "result": "exclusively present in peptidase-producing strains"}
    ]},
    {"molecule": "TGAGTTATACGCTATATCAATGGGGATTTTGAGCATTTTCTACTAGGTAATGAGGGGTTAGACCCCTCGCCTACTGTGCATTTGAGACTTTAAACCTACTAAGAGAATTTACCACTAAAT (double strand) [hetP promoter PCR fragment]", "values": [
      {"measurement": "binding", "setting": "[3]", "result": "binds"}
    ]},
    {"molecule": "AFSPSNSQNMISLK [non-tryptic PatX cleavage peptide flanking HRGTGR, detected by mass spectrometry]", "values": [
      {"measurement": "detection of non-tryptic cleavage peptide", "setting": "[2]", "result": "exclusively present in peptidase-producing strains"}
    ]},
    {"molecule": "ERGSGR [PatS6, signaling peptide PatS6 (ERGSGR), positive control in EMSA]", "values": [
      {"measurement": "binding to HetR and effect on its DNA-binding function", "setting": "[4]", "result": "binds to HetR to inhibit its DNA-binding function"},
      {"measurement": "effect of exogenous peptide on differentiation", "setting": "[5]", "result": "suppress differentiation"},
      {"measurement": "effect on HetR-hetP promoter interaction", "setting": "[6]", "result": "abolished this interaction"}
    ]},
    {"molecule": "RGSGR [PatS5, signaling peptide PatS5 (RGSGR)]", "values": [
      {"measurement": "binding to HetR and effect on its DNA-binding function", "setting": "[4]", "result": "binds to HetR to inhibit its DNA-binding function"},
      {"measurement": "effect of exogenous peptide on differentiation", "setting": "[5]", "result": "suppress differentiation"}
    ]},
    {"molecule": "B1", "values": [
      {"measurement": "effect of overexpression on heterocyst differentiation", "setting": "[1]", "result": "inhibits heterocyst differentiation"}
    ]},
    {"molecule": "B2", "values": [
      {"measurement": "Kd", "setting": "[7]", "result": 88, "unit": "nM"}
    ]}
  ]
}
